Reference: PMC4780071, “Discovery of a Biological Mechanism of Active Transport through the Tympanic Membrane to the Middle Ear” (Scientific Reports, 2016)

Legend:
[1] = test system: tympanic membrane (TM) of rats with active bacterial OM; assay: Comparative TM transit of individual phage clones in vivo (plaque assay of ME fluid); parameters: species or system rat (male Sprague-Dawley), NTHi-induced OM; conditions: for phage particles in the ME after 1 hr incubation of the peptide-phage on the TM: 10^10 PFUs applied, mean of six animals; for TM-transit rate into the ME compared with WT phage and the other clones: phage clone displaying the peptide, 1 × 10^10 phage particles on one TM for 1 hr, six rats, plaque assay of ME fluid
Description: (§1) All animal experiments were performed in strict accordance to the Guide for the Care and Use of Laboratory Animals of the National Institutes of Health (NIH) and the policies of the Veterans Affairs San Diego Healthcare Systems, CA. Experiments were carried out in strict accordance with an approved Institutional Animal Care and Use Committee (IACUC) protocol. Male Sprague–Dawley rats were purchased from The Jackson Laboratory. The animals were anesthetized with an intraperitoneal injection of 1.0–1.5 ml per 200–300 g bodyweight of rodent cocktail (40 mg/Kg Ketamine, 10 mg/Kg Xylasine, and 0.75 mg/Kg Acepromazine). The skin of the neck was shaved and treated with Povidone antiseptic solution. OM was induced by infecting the ME with nontypeable Haemophilus influenzae (NTHi) in a laboratory setting by surgically exposing the bulla via a ventral approach through a vertical midline incision made in the neck. A 25-gauge needle was used to fenestrate the bulla and inject ~50 μL saline solution containing 10^4 CFU/mL NTHi bacteria strain 3655 (biotype II, originally isolated from the ME of a pediatric OM patient). Following the inoculation, the opening was closed and incision was stapled. The TMs were visually confirmed to be intact after surgery and the rats were given Lactated Ringer’s solution and buprenorphine subcutaneously postoperatively. For in vivo phage display experiments, rats were used at two days post NTHi inoculation. The ears were examined otoscopically at this time to confirm signs of active infection and the presence of fluid in the ME cavity.
After three or ten rounds of subtraction/selection in strategies 1 and 2 respectively, single blue plaques were selected at random for preparation of purified stocks and sequencing as recommended by the manufacturer (New England Biolabs, Cambridge, MA, USA). Phage transit efficiency was determined by incubating 1 × 10^10 PFUs (plaque-forming units) of specific phage over the TMs of rats in vivo for 1 hr. At least six animals per time point were used. Incubation, washings, and elution conditions were performed as above. The phage transiting efficiency was determined by comparing the number of plaque-forming phage recovered from the ME fluid (output) by the number of plaque-forming phage in the input (TM side).
We quantified the rate of TM transit into the ME for all peptides identified by Strategy 1 (Fig. 3A) and those from Strategy 2 (Fig. 3B) that appeared at a frequency of three or more in our sequenced sample (Tables 1 and 2). Individual phage clones were amplified and 1 × 10^10 phage particles were applied onto one TM of six anesthetized rats for 1 hr. The number of phage particles recovered from the ME was then compared to that observed for WT (untargeted) phage. […] On the other hand, the peptide sequence of BPT-4 was clearly distinct in the phylogeny analysis.

[2] = test system: tympanic membrane (TM) of rats with OM; assay: Transport kinetics and saturation of TMT-3 phage in vivo; parameters: species or system rat (male Sprague-Dawley), NTHi-induced OM; conditions: for phage recovery from the ME: at least six animals per time point
Description: as §1
The phage peptide with one of the highest transport capacities measured above TMT-3 SADSTKTTHLTL, was selected for further transport specificity, kinetics and competitive binding assays. To evaluate the kinetics of transport of the TMT-3 single phage clone, a TMT-3 phage preparation was incubated on the TM over a 1, 2 or 4 hr time period at 1 × 10^10 PFU concentration. At least six animals per time point were used. Incubation, washing, and elution conditions were performed as above in rats with OM. The level of phage transport was evaluated by determining the titer (PFUs) of TMT-3 phage present in the ME fluid. To assess transport saturation, the recovery of TMT-3 phage from the ME was compared following application of 10^10 versus 10^12 phage particles to the TM for 1 hr. The corresponding free peptide SHSADSTKTTHLTLGGG was synthesized by Genscript (Piscataway, NJ, USA) in addition to an untargeted randomized control peptide SHDLSTSATLTHTKGGG (Genscript, Piscataway, NJ, USA) at purity >95%. All peptides were reconstituted in PBS pH, 7.2. For the competition assay TMT-3 phage application to the TM was performed at titer of 10^10 PFUs, as above. However, 1 μM of free peptide was included with the phage.

[3] = test system: TMs of ex vivo MEs from rats undergoing OM; assay: Ex vivo ME transport: dependence on time after death and temperature; parameters: species or system rat; conditions: for phage recovery through ex vivo TMs: warmed to 37 °C, 1 hr with phage
Description: In order to learn more about the pharmacokinetics mechanisms of transport, we tested the effect of varying metabolism or temperature on transport rates. […] MEs were removed intact from deeply anesthetized rats undergoing OM as described above. […] Translocation is also temperature dependent. […] It is well known that endocytosis is inhibited at 4 °C[36][37].

[4] = test system: healthy (uninfected) tympanic membrane; assay: TMT-3 phage transport across TMs of uninfected MEs; type: in vivo, rat; conditions: n = 6, data not shown
Excerpt: To establish the specificity of translocation, we assessed whether a synthetic TMT-3 peptide would interfere with internalization of corresponding peptide-bearing phage into the ME. […] In addition, TMT-3 phage was applied onto the TMs of uninfected MEs (n = 6). We observed that for healthy TMs, phage transport into the ME was quite limited when compared to the infected TM (data not shown). This could be attributed to limitations in efficient phage transport when fluid is not present on the other side of the TM. Alternatively, it is possible that the transit mechanism employed is only present in infected TMs.

Sequence	phage particles in the ME after 1 hr incubation of the peptide-phage on the TM ([1]; 1 hr, rats with OM)	TM-transit rate into the ME compared with WT phage and the other clones [1]	also measured
DVGAGRWFSDNG [TMT-4]	more than 2 × 10^3 phage particles	highest rates of transport	
SADSTKTTHLTL [TMT-3, transport tests used the phage clone]	more than 2 × 10^3 phage particles	highest rates of transport	dependence of phage recovery on time on the TM ([2]; 1, 2 and 4 hrs of contact with the infected TM, 1 × 10^10 PFU): exponential increase; dependence of phage recovery on the amount applied (saturation) ([2]; 10^10 versus 10^12 phage particles applied to the TM for 1 hr): increased proportionally with concentration; phage recovery from the ME ([2]; 1 hr of contact with the infected TM, 1 × 10^10 PFU): approximately 10^4 phage particles; phage recovery from the ME ([2]; 4 hrs of contact with the infected TM, 1 × 10^10 PFU): ~10^6 phage particles; ME recovery of phage ex vivo ([3]; 4 °C, 1 hr exposure of the TM to 10^10 PFUs): severely compromised; phage recovery through ex vivo TMs ([3]; TMs stored 12 hrs postmortem at 4 °C): No recovery; phage recovery through ex vivo TMs ([3]; TMs stored 24 hrs postmortem at 4 °C): No recovery; phage transport into the ME through healthy TMs compared to the infected TM [4]: quite limited; recovery from the ME among the six positive phage clones ([1]; 10^10 PFUs, 1 hr, rats with OM): greatest recovery from the ME
SDDSRPIAQFAI [TMT-5]		highest rates of transport	
TFNPPPPQMPST [BPT-4]	more than 2 × 10^3 phage particles	highest rates of transport	
THPSTKVPGTPA [BPT-3]	more than 2 × 10^3 phage particles	highest rates of transport	
TLSPKMPGGGYW [TMT-2]	more than 2 × 10^3 phage particles	highest rates of transport	
